In PubChem BioAssay (NCI):
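Each compound was tested at five concentrations against cells in 96-well plates for 48 hours. GI50 marks 50% less growth. TGI denotes the concentration required for complete inhibition of growth.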

How the values were obtained:
Assay in all cases: NCI anticancer screen, dose series, 48 h
[1] = tested on: OVCAR-4 ovarian
[2] = tested on: RPMI-8226 leukemia
[3] = tested on: HCT-116 colon
[4] = tested on: ACHN renal
[5] = tested on: MOLT-4 leukemia
[6] = tested on: SN12C renal
[7] = tested on: IGROV1 ovarian
[8] = tested on: SK-MEL-5 melanoma
[9] = tested on: OVCAR-3 ovarian

Row | SMILES | TGI [1] [µM] | TGI [2] [µM] | TGI [3] [µM] | TGI [4] [µM] | TGI [5] [µM] | TGI [6] [µM] | TGI [7] [µM] | TGI [8] [µM] | TGI [9] [µM] | GI50 [1] [µM] | GI50 [2] [µM] | GI50 [3] [µM] | GI50 [4] [µM] | GI50 [5] [µM] | GI50 [6] [µM] | GI50 [7] [µM] | GI50 [8] [µM] | GI50 [9] [µM]
1 | COc1cc(C2c3cc4c(cc3OC(N3CCCC3)C2C)OCO4)cc(OC)c1OC (configuration not stated) | 80.1 | > 19.9 | 27.7 | 38.3 | > 18.6 | 28 | 30.2 | 5.06 | 0.601 | – | – | – | – | – | – | – | – | –
2 | COc1c(CCC[P+](c2ccccc2)(c2ccccc2)c2ccccc2)cc2c(c1OC)OCO2 | 12.5 | 1.72 | > 100 | 29.5 | 16.3 | 10.4 | 10.7 | 2.81 | 18 | 1.59 | 0.233 | 1.2 | 5.34 | 3.12 | 2.42 | 1.02 | 1.33 | 0.629
3 | C1CCSCCCCSCCCCSCCCCSC1 | > 100 | > 100 | > 100 | > 100 | – | > 100 | > 100 | > 100 | > 100 | – | – | – | – | – | – | – | – | –
4 | O=CNc1c(Cl)cc2c(c1Cl)Cc1cc([N+](=O)[O-])ccc1-2 | > 100 | > 100 | 19.7 | > 100 | > 100 | > 100 | 38.7 | > 100 | 8.87 | 6.11 | 2.59 | 1.02 | 7.83 | 2.13 | 14.4 | 0.923 | 1.11 | 1.34
5 | Cc1ccc2c(ccc3c[n+]4c5ccccc5ccc4n32)c1 | 4.64 | 18.8 | 7.51 | > 100 | 9.65 | 2.5 | 18.6 | 2.33 | 2.63 | 1.32 | 2.72 | 1.85 | 4.12 | 1.65 | 0.297 | 1.52 | 1.01 | 0.459
6 | CCCCCn1c(=N)n(CC(O)COc2cccc(C)c2)c2ccccc21 (configuration not stated) | 17.6 | 5.2 | 17.7 | 23.8 | 11.1 | 19 | 18 | 7.82 | 21.2 | 3.67 | 2.09 | 3.03 | 8.85 | 3.08 | 5.41 | 4.45 | 2.75 | 8
7 | O=C(Cn1ccc(=O)[nH]c1=O)Nc1ccc(C(=O)O)c(O)c1 | > 100 | > 100 | > 100 | > 100 | > 100 | > 100 | > 100 | > 100 | > 100 | – | – | – | – | – | – | – | – | –
8 | COc1ccc(-c2ccc(/C=N/n3c(COc4ccc(Cl)cc4Cl)n[nH]c3=S)o2)c([N+](=O)[O-])c1 | 72.7 | 43.7 | 31.3 | > 100 | 38.9 | 58.4 | > 100 | – | 46.3 | 28.9 | 11.7 | 17.5 | 45.3 | 14 | 24.2 | 38.7 | – | 16.1
9 | CN(C)/C=C/c1nnc([N+](=O)[O-])s1 | – | – | 26.2 | 31.9 | – | 47.7 | – | 24.3 | 7.58 | – | – | – | – | – | – | – | – | –
10 | Cc1ccc(-c2c(N)[n+]([O-])c3ccccc3[n+]2[O-])cc1 | 33.1 | > 100 | – | 29.1 | > 100 | 27.8 | 29.8 | 24.4 | 30.3 | – | – | – | – | – | – | – | – | –
11 | COc1c2c(c3c(c1CCC(=O)O)OC(C)(C)C=C3)OC(C)(C)C=C2 | > 100 | > 100 | > 100 | > 100 | > 100 | > 100 | > 100 | > 100 | > 100 | – | – | – | – | – | – | – | – | –
12 | COC1(C(=O)N[C@@H](C)c2ccc(-n3cc(F)cn3)nc2)CCC(c2nc(C)cc(Nc3cc(C)[nH]n3)n2)CC1 (some centres not stated) | 17.9 | 40 | 14 | 3.49 | > 100 | 12.4 | – | 10.4 | 20.6 | 1.94 | 7.18 | 2.61 | 1.01 | 3.48 | 0.581 | – | 3.18 | 3.13
13 | COC(=O)/C=C/C=C(c1ccccc1)c1ccccc1 | > 100 | 95.5 | 18.9 | > 100 | > 100 | > 100 | – | 13.8 | 8.24 | 8.59 | 6.36 | 3.68 | 5.56 | 14.2 | 7.83 | – | 3.43 | 2.4
14 | O=C(CC(=O)CC(O)(C(F)(F)F)C(F)(F)F)CC(O)(C(F)(F)F)C(F)(F)F | > 10 | > 10 | > 10 | > 10 | > 10 | > 10 | > 10 | > 10 | > 10 | – | – | – | – | – | – | – | – | –
15 | CNC(=O)n1ccc2cc(Oc3ccnc(NC(=O)c4ccc(C5CCN(CCO)CC5)cc4)c3)c(OCCOC)cc21 | 5.78 | 6.58 | 11.9 | 10.7 | 12.7 | 27.9 | 20.7 | 3.86 | 11 | 1.99 | 2 | 2.63 | 3.16 | 2.65 | 13.5 | 5.65 | 1.96 | 3.67
16 | COc1ccc(C(=O)/C=C/c2ccc(/C=C/c3cc(OC)c(OC)c(OC)c3)cc2)cc1 | 47.3 | 8.54 | > 100 | > 100 | > 100 | > 100 | 76.4 | 19.2 | 14.3 | 6.31 | 2.57 | 2.62 | 11.6 | 3.49 | 9.61 | 9.24 | 3.39 | 3.92
17 | Nc1c(C(=O)Nc2cccc([N+](=O)[O-])c2)sc2nc3c(cc12)C(O)CCC3 (configuration not stated) | > 100 | – | > 100 | > 100 | > 100 | > 100 | > 100 | > 100 | > 100 | > 36.2 | – | 4.09 | 30.6 | 5.74 | 7.39 | 26 | 3.59 | 4.53
18 | CCCN=Cc1cc(Cc2ccc(O)c(C=NCCC)c2)ccc1O | 86.1 | – | 7.19 | 53.4 | 3.71 | 15.3 | 37.2 | 17.2 | 14.4 | – | – | – | – | – | – | – | – | –
19 | Nc1ccn(Cc2ccc(C34CC5CC(CC(C5)C3)C4)c(O)c2)c(=O)n1 | > 100 | > 100 | > 100 | > 100 | > 100 | > 100 | – | > 100 | > 100 | > 100 | > 100 | > 100 | > 100 | 54.4 | > 100 | – | 82.4 | 58.9
20 | CC(C)(C)C#CC1=C(Br)C(=O)OC1 | 19.6 | 3.71 | – | – | 5.03 | 17.7 | 23.2 | > 100 | 4.28 | 1.85 | 0.597 | – | 0.266 | 1.26 | 6.26 | 4.97 | > 100 | 0.935
21 | Nc1cc2cccc[n+]2c2cc(Cl)ccc12 | 38.9 | 29.9 | – | – | – | 35.4 | – | 23.2 | – | 8.44 | 2.86 | 30.2 | 34.6 | 4.22 | 5.56 | 71.6 | 10.4 | –
22 | O=C1c2ccccc2-c2c1c1ccccc1c(=O)n2CCCNCCCNCCCn1c2c(c3ccccc3c1=O)C(=O)c1ccccc1-2 | 1.02 | – | 0.476 | 0.388 | – | < 0.0303 | < 0.0416 | 1.22 | 0.232 | 0.188 | – | < 0.01 | < 0.01 | < 0.01 | < 0.01 | < 0.01 | 0.12 | 0.0818
23 | CC1(C)SC2C(NC(=O)C(N)c3ccccc3)C(=O)N2C1C(=O)O (configuration not stated) | – | > 100 | > 100 | > 100 | > 100 | > 100 | > 100 | > 100 | > 100 | – | – | – | – | – | – | – | – | –
24 | C=C1C(=O)O[C@H]2[C@H]1CC/C(COC(=O)NCc1ccccc1OC)=C\CC[C@@]1(C)O[C@@H]21 | 4.92 | 6.24 | 1.86 | 2.85 | 6.13 | – | 4.36 | 8.03 | 2.42 | 1.78 | 1.77 | 0.548 | 1.27 | 2.53 | – | 1.57 | 2.86 | 0.872
25 | COc1nc(NC2OCC(OC(C)=O)C(OC(C)=O)C2OC(C)=O)c(N=CC=Nc2c(NC3OCC(OC(C)=O)C(OC(C)=O)C3OC(C)=O)nc(OC)n(C)c2=O)c(=O)n1C (configuration not stated) | > 100 | > 100 | > 100 | > 100 | – | > 100 | > 100 | > 100 | > 100 | – | – | – | – | – | – | – | – | –
